Results reported in patent publication US8603980B2, “Glutamate receptor antagonists and methods of use” (The Johns Hopkins University, priority 2007, dated 2013).
Entries after “also recorded” stand apart in the source; their conditions may differ. Read-outs that look alike come from different tables or passages of the source.

Legend:
[1] = test system: megakaryocytes; test: Whole-cell recordings from freshly isolated megakaryocytes; format: cell-based, mouse
Method: All procedures using animals were approved by the University of Miyazaki Institutional Animal Care and Use Committee. Megakaryocyte preparation was performed as reported previously (43). Briefly, mouse bone marrow was flushed with Na+-rich external solution (Na+-ES, 150 mM NaCl, 1 mM CaCl2, and 10 mM HEPES, pH adjusted to 7.2 using NMDG-OH). Cells were dispersed by repetitive pipetting, washed three times by gentle centrifugation, resuspended in Na+-ES and used within 90 min of isolation.
Whole-cell recordings were obtained from freshly isolated megakaryocytes using an intracellular solution of the following composition: 150 mM CsCl, 1 mM ethylene glycol bis(-aminoethylether)-N,N,N′,N′-tetraacetic acid (EGTA) and 10 mM HEPES. The pH was adjusted to 7.3 using NMDG-OH. The patch-clamp procedures were similar to those described previously (43). Briefly, the experiments were performed in the tight seal whole-cell configuration at room temperature and electrical signals were acquired with an HEKA EPC-7 (Darmstadt, Germany). The pipette resistances ranged between 2 MΩ and 3 MΩ. Current-voltage relationships (I-V curves) were obtained by clamping the cell to different potentials in 30 mV increments (−30, 0 and +30 mV; each of 35 ms duration) from a holding potential of −60 mV. I-V curves obtained prior to the application of the agonists were subtracted from those (typically two) obtained in the presence of the agonists. The current responses were monitored on a chart recorder (WR7700, Graphtec, Tokyo, Japan) through a lowpass filter (200 Hz). Chemicals and reagents used were purchased from either Sigma (St. Louis, Mo.) or Wako Pure Chemicals (Osaka, Japan). […] The perfusion pipette was located within 30 μm of the cell and the puff pressure was adjusted to obtain rapid and effective agonist application (<10 msec).

[2] = test system: human platelets; test: Platelet activation by FACS (PAC-1 antibody binding or surface P-selectin); format: cell-based; details: for AMPA mediated increase in TRAP induced platelet activation: substance added before AMPA, CNQX 100 μM, JST 1 μM
Method: It was next determined whether glutamate is a mediator of platelet activation.
Blood was collected into citrate anticoagulant, platelets were isolated as platelet rich plasma (PRP) by centrifugation at 180 g for 15 min, and then diluted in Tyrode's buffer 1:20 for activation flow cytometry studies. […] Washed platelets were resuspended in Tyrode's.

[3] = Tail bleeding time
Method: Mice were treated intravenously (i.v.) with control PBS or CNQX (0.1 mg/kg) and 20 mins later tail bleeding times were determined.
6 week old male mice were anesthetized with ketamine and xylazine (80/13 mg/kg) and injected i.v. with either PBS or CNQX:HBC, 0.1 mg/kg of active CNQX. Twenty minutes later the distal 3 mm of the tail was amputated, immersed in 37° C. saline and the time to visual cessation of bleeding recorded.

[4] = Intravital microscopy of FeCl3 induced thrombosis in mesenteric arterioles; format: in vivo, mouse; details: for time to total vessel occlusion: FeCl3 injury
[5] = test system: platelets; test: Platelet aggregation (aggregometer) in response to TRAP; format: cell-based, human; details: for final aggregation: exogenous addition
Method: The functional relevance of targeting platelet AMPAR signaling was assayed by first measuring aggregation in response to TRAP (10 μM) after incubating platelets with control or CNQX (1-100 μM). […] Human platelets were isolated from healthy volunteers who had not taken aspirin or NSAID within 10 d, under a protocol approved by The Johns Hopkins University School of Medicine Institutional Review Board (JCCI). Blood was collected into citrate anticoagulant, platelets were isolated as platelet rich plasma (PRP) by centrifugation at 180 g for 15 min, and then diluted in Tyrode's buffer 1:20 for activation flow cytometry studies. To determine surface GluR1, a Fc Blocking antibody was added to reduce non-specific background antibody binding. Mouse platelets were isolated by collection into heparinized Tyrode's buffer and isolated by centrifugation. Washed platelets were resuspended in Tyrode's. Intracellular ion concentrations were performed after incubating platelets diluted 1:20 in Tyrode's buffer with SBFI for 45 minutes prior to experiments.

[6] = test system: AMPA receptor subunits GluR1-4 and kainate receptor subunit GluR5; details: cited from earlier work
[7] = test system: platelets; test: Intracellular sodium in platelets (SBFI dye, FACS); format: cell-based, human; details: for Na+ level / influx in platelets treated with TRAP alone: amiloride 100 μM
Method: Human platelets were isolated from healthy volunteers who had not taken aspirin or NSAID within 10 d, under a protocol approved by The Johns Hopkins University School of Medicine Institutional Review Board (JCCI). Blood was collected into citrate anticoagulant, platelets were isolated as platelet rich plasma (PRP) by centrifugation at 180 g for 15 min, and then diluted in Tyrode's buffer 1:20 for activation flow cytometry studies. To determine surface GluR1, a Fc Blocking antibody was added to reduce non-specific background antibody binding. Mouse platelets were isolated by collection into heparinized Tyrode's buffer and isolated by centrifugation. Washed platelets were resuspended in Tyrode's. Intracellular ion concentrations were performed after incubating platelets diluted 1:20 in Tyrode's buffer with SBFI for 45 minutes prior to experiments.

[8] = moderate TRAP (5 μM), platelets pre-incubated with substance
[9] = i.v. 20 mins before FeCl3, vs PBS

## C=C(C)[C@H]1CN[C@H](C(=O)O)[C@H]1CC(=O)O [KA, kainic acid]
[1]; 100 μM, cyclothiazide in the recording solution
  inward current following rapid perfusion: 3.1+/−0.9 pA
[1]; 0.1 or 1 mM, no cyclothiazide
  current on rapid application without cyclothiazide: did not induce a measurable current
[1]; I-V curves, cyclothiazide, no obvious rectification
  reversal potential of the agonist-induced current: ~0 mV
[2]; [8]
  TRAP induced platelet activation (PAC-1 antibody binding): dose dependently increases

## O=C(O)C1CN(CCCP(=O)(O)O)CCN1 (racemic) [CPP, (±)-3-(2-Carboxypiperazin-4-yl)propyl-1-phosphonic acid]
[2]
  glutamate mediated increase in TRAP induced platelet activation: does not inhibit

## N[C@@H](Cn1ccc(=O)n(Cc2ccccc2C(=O)O)c1=O)C(=O)O [UBP302]
[2]
  platelet activation by FACS: dose dependently reduces platelet activation
[3]; mouse, in vivo
  bleeding time in mice: prolongs bleeding time
[4]
  time to total vessel occlusion: prolonged time to total vessel occlusion

## NCCCNCCCCNCCC(=O)NCCCCCNC(=O)[C@H](CC(N)=O)NC(=O)Cc1ccc(O)cc1O [JST]
[2]
  AMPA mediated increase in TRAP induced platelet activation: no effect

## N[C@@H](CCC(=O)O)C(=O)O [glutamate]
[5]
  final aggregation: no effect
[2]
  ATP mediated platelet activation: not increased
  P2Y agonist 2-Me-ADP induced platelet activation: increases
  TRAP induced platelet activation (PAC-1 antibody binding): significantly increases platelet activation; also recorded: dose dependently increases
  TRAP induced platelet activation: P-selectin expression: increases agonist induced platelet activation
  collagen induced platelet activation: no effect
  epinephrine induced platelet activation: significantly increases
  increase in platelet activation following low concentration TRAP versus control: approximately two times greater
  increase in platelet activation following low concentration thromboxane mimetic versus control: approximately three times greater than control
  increase of TRAP induced platelet activation compared to control treated platelets: greater than 50%
  platelet activation at high TRAP concentration: no effect
  platelet activation in response to thromboxane mimetic U46619: dose dependently increases
  resting platelet activation (PAC-1 antibody binding): does not increase

## N[C@@H](Cn1nc(Cl)c(=O)[nH]c1=O)C(=O)O [5-chloro-6-azawillardiine]
[6]; at the cost of selectivity for AMPA over kainate receptors
  selectivity for GluR4 over GluR1 and 2: some selectivity

## Cc1onc(O)c1C[C@H](N)C(=O)O [AMPA, alpha(α)-amino-3-hydroxy-5-methyl-4-isoxazolepropionic acid]
[1]
  current on rapid application without cyclothiazide: did not induce a measurable current
  inward current following rapid perfusion: 8.6+/−4.5 pA
  reversal potential of the agonist-induced current: ~0 mV
[5]; AMPA 1 mM pre-treatment
  platelets aggregated at 1 min post-TRAP: approximately 75%
[5]; AMPA 1 mM, TRAP 10 μM
  rate of early aggregation: increases
[5]
  final aggregation: no effect
[7]; AMPA added after amiloride (100 μM)
  Na+ influx in response to TRAP after NHE inhibition: restores Na+ influx
[2]
  platelet activation in response to thromboxane mimetic U46619: increases platelet activation

## CC(C)(C)c1o[nH]c(=O)c1CC(N)C(=O)O (stereo not shown) [ATPA]
[2]
  platelet activation by FACS: increases platelet activation

## N#Cc1cc2[nH]c(=O)c(=O)[nH]c2cc1[N+](=O)[O-] [CNQX, -cyano-7-nitroquinoxaline-2,3-dione]
[1]; CNQX 30 μM
  AMPA induced inward current in presence of antagonist: blocked
[5]; TRAP 10 μM, CNQX 1-100 μM
  platelet aggregation in response to TRAP: dose dependently reduces platelet aggregation
[7]; CNQX 100 μM
  Na+ concentration in platelets treated with AMPA and TRAP: decreases Na+ concentrations
  Na+ level / influx in platelets treated with TRAP alone: decreases Na+ levels
[6]
  selectivity for AMPAR subunits versus KA receptor subunits: 20-150 fold
[2]; 10 μM CNQX
  TRAP induced platelet activation at low antagonist concentration: significantly decreases platelet activation
[2]; P-selectin by FACS
  TRAP induced platelet activation: P-selectin expression: decreases platelet activation
[2]; [8]
  TRAP induced platelet activation (PAC-1 antibody binding): inhibits
[2]
  AMPA mediated increase in TRAP induced platelet activation: inhibits the effects of AMPA
[3]; 0.1 mg/kg i.v., 20 mins before
  average tail bleeding time: approximately 600 sec
[4]
  time to total vessel occlusion: prolonged
[4]; [9]
  time to platelet adhesion (greater than 10 platelets adherent for greater than 10 sec): prolonged
  time to thrombus formation (first stable thrombus greater than 20 μm): prolonged

## N=C(N)NC(=O)c1nc(Cl)c(N)nc1N [amiloride]
[7]; CNQX 100 μM
  Na+ level / influx in platelets treated with TRAP alone: reduces Na+ influx
